Experiment [1] concerns HCV genotype 1a (H77 strain) replicon in HUH-7 cells. Briefly: HCV replicon luciferase reporter assay, genotype 1a. To be noted: Hepatitis C virus, Huh-7, 72 h, HCV genotype 1a replicon luciferase assay, 3 days incubation, range class, read-out: LE_1a (EC50, range). It is filed as cell-based. An outline of the steps:
(§1)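 Replicon inhibition for both genotypes was measured as Renilla luciferase signal (EnduRen, 7.5 μM final, 2 h) after 3-day, 37° C exposure of replicon-bearing HUH-7 cells in 4% FCS DMEM, 0.5% DMSO. The 1b construct carries S1179I; the 1a H77 construct carries P1496L and S2204I. Twenty-point, 3-fold dilutions were fitted four-parametrically for EC50, and CC50 was taken from multiplexed Cell Titer-Blue.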
On the technique in general: In antiviral work, replicon cells carry a viral genome segment that copies itself.

Experiment [2] has as its system HCV genotype 1b (Con1) replicon in HUH-7 cells. Briefly: HCV replicon luciferase reporter assay, genotype 1b. To be noted: Hepatitis C virus, Huh-7, 72 h, HCV genotype 1b replicon luciferase assay, 3 days incubation, range class, read-out: LE_1b (EC50, range). It is filed as cell-based. An outline of the steps:
as §1

The text below walks through data of patent US9499550B2 (BRISTOL-MYERS SQUIBB COMPANY, priority 2012, dated 2016).

pEC50: −log10 of the molar value.

On to `COc1ccc2c(O[C@@H]3C[C@H]4C(=O)N[C@]5(C(=O)NS(=O)(=O)C6CC6)C[C@H]5/C=C\CC[C@H](C)C[C@@H](C)[C@H](NC(=O)OC(C)(C)C(F)(F)F)C(=O)N4C3)nccc2c1F` [Compound 3149, 1,1,1-trifluoro-2-methylpropan-2-yl((2R,6S,7R,9S,13aS,14aR,16aS,Z)-14a-((cyclopropylsulfonyl)carbamoyl)-2-((5-fluoro-6-methoxyisoquinolin-1-yl)oxy)-7,9-dimethyl-5,16-dioxo-1,2,3,5,6,7,8,9,10,11,13a,14,14a,15,16,16a-hexadecahydrocyclopropa[e]pyrrolo[1,2-a][1,4]diazacyclopentadecin-6-yl)carbamate], for which the pEC50 (as a rule, −log10 of the EC50, conventionally taken in molar units) in experiment [1] is 6.99 to 8.32; in experiment [2] it was more than 8.26.

On to `COc1ccc2c(O[C@@H]3C[C@H]4C(=O)N[C@]5(C(=O)NS(=O)(=O)C6CC6)C[C@H]5/C=C\CC[C@@H](C)C[C@@H](C)[C@H](NC(=O)OC(C)(C)C(F)(F)F)C(=O)N4C3)nccc2c1F` [Compound 3150, 1,1,1-trifluoro-2-methylpropan-2-yl((2R,6S,7R,9R,13aS,14aR,16aS,Z)-14a-((cyclopropylsulfonyl)carbamoyl)-2-((5-fluoro-6-methoxyisoquinolin-1-yl)oxy)-7,9-dimethyl-5,16-dioxo-1,2,3,5,6,7,8,9,10,11,13a,14,14a,15,16,16a-hexadecahydrocyclopropa[e]pyrrolo[1,2-a][1,4]diazacyclopentadecin-6-yl)carbamate], for which the pEC50 in experiment [1] and in experiment [2] was more than 8.26 throughout.

Regarding `COc1ccc2c(O[C@@H]3C[C@H]4C(=O)N[C@]5(C(=O)NS(=O)(=O)C6CC6)C[C@H]5/C=C\CC[C@H](C)C[C@@H](C)[C@H](NC(=O)O[C@@H]5C[C@@H]6C[C@@H]6C5)C(=O)N4C3)nccc2c1F` [Compound 3151, (1R,3r,5S)-bicyclo[3.1.0]hexan-3-yl((2R,6S,7R,9S,13aS,14aR,16aS,Z)-14a-((cyclopropylsulfonyl)carbamoyl)-2-((5-fluoro-6-methoxyisoquinolin-1-yl)oxy)-7,9-dimethyl-5,16-dioxo-1,2,3,5,6,7,8,9,10,11,13a,14,14a,15,16,16a-hexadecahydrocyclopropa[e]pyrrolo[1,2-a][1,4]diazacyclopentadecin-6-yl)carbamate], the negative logarithm of the EC50 (pEC50) was 6.99 to 8.32 in experiment [1] and more than 8.26 in experiment [2].

For the compound `COc1ccc2c(O[C@@H]3C[C@H]4C(=O)N[C@]5(C(=O)NS(=O)(=O)C6CC6)C[C@H]5/C=C\CC[C@@H](C)C[C@@H](C)[C@H](NC(=O)O[C@@H]5C[C@@H]6C[C@@H]6C5)C(=O)N4C3)nccc2c1F` [Compound 3152, (1R,3r,5S)-bicyclo[3.1.0]hexan-3-yl((2R,6S,7R,9R,13aS,14aR,16aS,Z)-14a-((cyclopropylsulfonyl)carbamoyl)-2-((5-fluoro-6-methoxyisoquinolin-1-yl)oxy)-7,9-dimethyl-5,16-dioxo-1,2,3,5,6,7,8,9,10,11,13a,14,14a,15,16,16a-hexadecahydrocyclopropa[e]pyrrolo[1,2-a][1,4]diazacyclopentadecin-6-yl)carbamate], the pEC50 in experiment [1] and in experiment [2] was more than 8.26 in each case.

As for `COc1cc(F)cc2c(O[C@@H]3C[C@H]4C(=O)N[C@]5(C(=O)NS(=O)(=O)C6(C)CC6)C[C@H]5/C=C\CC[C@H](C)C[C@@H](C)[C@H](NC(=O)OC(C)(C)C)C(=O)N4C3)nccc12` [Compound 3153, tert-butyl ((2R,6S,7R,9S,13aS,14aR,16aS,Z)-2-((7-fluoro-5-methoxyisoquinolin-1-yl)oxy)-7,9-dimethyl-14a-(((1-methylcyclopropyl)sulfonyl)carbamoyl)-5,16-dioxo-1,2,3,5,6,7,8,9,10,11,13a,14,14a,15,16,16a-hexadecahydrocyclopropa[e]pyrrolo[1,2-a][1,4]diazacyclopentadecin-6-yl)carbamate], the negative-log EC50 (pEC50) in experiment [1] and in experiment [2] was 6.99 to 8.32 throughout.

Regarding `COc1cc(F)cc2c(O[C@@H]3C[C@H]4C(=O)N[C@]5(C(=O)NS(=O)(=O)C6(C)CC6)C[C@H]5/C=C\CC[C@@H](C)C[C@@H](C)[C@H](NC(=O)OC(C)(C)C)C(=O)N4C3)nccc12` [Compound 3154, tert-butyl ((2R,6S,7R,9R,13aS,14aR,16aS,Z)-2-((7-fluoro-5-methoxyisoquinolin-1-yl)oxy)-7,9-dimethyl-14a-(((1-methylcyclopropyl)sulfonyl)carbamoyl)-5,16-dioxo-1,2,3,5,6,7,8,9,10,11,13a,14,14a,15,16,16a-hexadecahydrocyclopropa[e]pyrrolo[1,2-a][1,4]diazacyclopentadecin-6-yl)carbamate], the pEC50 in experiment [1] and in experiment [2] was more than 8.26 throughout.

Turning to `COc1cc(F)cc2c(O[C@@H]3C[C@H]4C(=O)N[C@]5(C(=O)NS(=O)(=O)C6(C)CC6)C[C@H]5/C=C\CC[C@H](C)C[C@@H](C)[C@H](NC(=O)OC(C)(C)C(F)(F)F)C(=O)N4C3)nccc12` [Compound 3155, 1,1,1-trifluoro-2-methylpropan-2-yl((2R,6S,7R,9S,13aS,14aR,16aS,Z)-2-((7-fluoro-5-methoxyisoquinolin-1-yl)oxy)-7,9-dimethyl-14a-(((1-methylcyclopropyl)sulfonyl)carbamoyl)-5,16-dioxo-1,2,3,5,6,7,8,9,10,11,13a,14,14a,15,16,16a-hexadecahydrocyclopropa[e]pyrrolo[1,2-a][1,4]diazacyclopentadecin-6-yl)carbamate], the pEC50 in experiment [1] and in experiment [2] was 6.99 to 8.32 each time.

For the compound `COc1cc(F)cc2c(O[C@@H]3C[C@H]4C(=O)N[C@]5(C(=O)NS(=O)(=O)C6(C)CC6)C[C@H]5/C=C\CC[C@@H](C)C[C@@H](C)[C@H](NC(=O)OC(C)(C)C(F)(F)F)C(=O)N4C3)nccc12` [Compound 3156, 1,1,1-trifluoro-2-methylpropan-2-yl((2R,6S,7R,9R,13aS,14aR,16aS,Z)-2-((7-fluoro-5-methoxyisoquinolin-1-yl)oxy)-7,9-dimethyl-14a-(((1-methylcyclopropyl)sulfonyl)carbamoyl)-5,16-dioxo-1,2,3,5,6,7,8,9,10,11,13a,14,14a,15,16,16a-hexadecahydrocyclopropa[e]pyrrolo[1,2-a][1,4]diazacyclopentadecin-6-yl)carbamate], the pEC50 in experiment [1] and in experiment [2] was more than 8.26 throughout.

In the case of `COc1cc(F)cc2c(O[C@@H]3C[C@H]4C(=O)N[C@]5(C(=O)NS(=O)(=O)C6(C)CC6)C[C@H]5/C=C\CC[C@H](C)C[C@@H](C)[C@H](NC(=O)O[C@H](C)C(F)(F)F)C(=O)N4C3)nccc12` [Compound 3157, (R)-1,1,1-trifluoropropan-2-yl ((2R,6S,7R,9S,13aS,14aR,16aS,Z)-2-((7-fluoro-5-methoxyisoquinolin-1-yl)oxy)-7,9-dimethyl-14a-(((1-methylcyclopropyl)sulfonyl)carbamoyl)-5,16-dioxo-1,2,3,5,6,7,8,9,10,11,13a,14,14a,15,16,16a-hexadecahydrocyclopropa[e]pyrrolo[1,2-a][1,4]diazacyclopentadecin-6-yl)carbamate], the pEC50 in experiment [1] was 6.99 to 8.32; in experiment [2], more than 8.26.

`COc1cc(F)cc2c(O[C@@H]3C[C@H]4C(=O)N[C@]5(C(=O)NS(=O)(=O)C6(C)CC6)C[C@H]5/C=C\CC[C@@H](C)C[C@@H](C)[C@H](NC(=O)O[C@H](C)C(F)(F)F)C(=O)N4C3)nccc12` [Compound 3158, (R)-1,1,1-trifluoropropan-2-yl ((2R,6S,7R,9R,13aS,14aR,16aS,Z)-2-((7-fluoro-5-methoxyisoquinolin-1-yl)oxy)-7,9-dimethyl-14a-(((1-methylcyclopropyl)sulfonyl)carbamoyl)-5,16-dioxo-1,2,3,5,6,7,8,9,10,11,13a,14,14a,15,16,16a-hexadecahydrocyclopropa[e]pyrrolo[1,2-a][1,4]diazacyclopentadecin-6-yl)carbamate]: the pEC50 in experiment [1] and in experiment [2] was more than 8.26 each time.

With `COc1cc(F)cc2c(O[C@@H]3C[C@H]4C(=O)N[C@]5(C(=O)NS(=O)(=O)C6(C)CC6)C[C@H]5/C=C\CC[C@H](C)C[C@@H](C)[C@H](NC(=O)O[C@@H]5C[C@@H]6C[C@@H]6C5)C(=O)N4C3)nccc12` [Compound 3159, (1R,3r,5S)-bicyclo[3.1.0]hexan-3-yl((2R,6S,7R,9S,13aS,14aR,16aS,Z)-2-((7-fluoro-5-methoxyisoquinolin-1-yl)oxy)-7,9-dimethyl-14a-(((1-methylcyclopropyl)sulfonyl)carbamoyl)-5,16-dioxo-1,2,3,5,6,7,8,9,10,11,13a,14,14a,15,16,16a-hexadecahydrocyclopropa[e]pyrrolo[1,2-a][1,4]diazacyclopentadecin-6-yl)carbamate], the pEC50 in experiment [1] was 6.99 to 8.32; in experiment [2], more than 8.26.

For the compound `COc1cc(F)cc2c(O[C@@H]3C[C@H]4C(=O)N[C@]5(C(=O)NS(=O)(=O)C6(C)CC6)C[C@H]5/C=C\CC[C@@H](C)C[C@@H](C)[C@H](NC(=O)O[C@@H]5C[C@@H]6C[C@@H]6C5)C(=O)N4C3)nccc12` [Compound 3160, (1R,3r,5S)-bicyclo[3.1.0]hexan-3-yl((2R,6S,7R,9R,13aS,14aR,16aS,Z)-2-((7-fluoro-5-methoxyisoquinolin-1-yl)oxy)-7,9-dimethyl-14a-(((1-methylcyclopropyl)sulfonyl)carbamoyl)-5,16-dioxo-1,2,3,5,6,7,8,9,10,11,13a,14,14a,15,16,16a-hexadecahydrocyclopropa[e]pyrrolo[1,2-a][1,4]diazacyclopentadecin-6-yl)carbamate], the pEC50 in experiment [1] and in experiment [2] was more than 8.26 in each case.
